Results from paper PMC13588620, “Linear antibody epitope prediction using AlphaFold2” (eLife, 2026).
“Also recorded” adds a separate entry of the source.

Tested on: mBG17 binding to SARS-CoV-2 nucleocapsid protein
Assay: Alanine-scan peptide competition ELISA with serial peptide dilution
Set-up: species or system mouse
Settings: 4-fold serial dilution of peptide from 40 μg to ~2.5 ng; absorbance at 450 nm; n=3; percentage of binding from no-peptide control

Row | Sequence | competition of mBG17 binding to nucleocapsid protein by alanine mutant peptides, compared with the WT peptide
1 | DDFSKQLAQS [Q8A] | strong reductions in competition
2 | ADFSKQLQQS [D1A] | no change in competition; also recorded: less disruptive to binding
3 | DDFSKALQQS [Q6A] | minor reductions in competition; also recorded: less disruptive to binding
4 | DDFSKQAQQS [L7A] | strong reductions in competition
5 | DDFSKQLQQS [a.a. 401–410] | strong competition
6 | DDASKQLQQS [F3A] | strong reductions in competition
